Columns and labels:
GABA-T = GABA-T inhibition in mouse brain after daily i.p. injection for four consecutive days (Example 10); format: in vivo, mice (male albino CDI); details: 24 hours after last dose
Method: (§1) A group of 10 male albino CDI mice from Charles Riner, France, is given an i.p. injection of the test compound in aqueous solution daily for four consecutive days. Half of the animals are killed by decapitation 24 hours after the last dose of the test compound. The other half of the animals are observed for up to 12 days for toxicity (as indicated by weight loss and deaths). Control animals receive an injection of the vehicle only.
The brains are removed from the dead mice and are divided into two portions by sagittal section. One half is used for the measurement of GABA-T activity while the other half is used for measuring GABA content. The GABA-T activity is measured using known methods as described by M. Jung et al., J. Neurochem., 28, 717 (1977) and 29, 797 (1977). GABA content is measured by perchloric acid or trichloroacetic acid extracts using an amino acid analyzer equiped with a fluorescene detector.
(§2) When tested as described above, 1-fluoro-2,4-diaminobutane (MFDB) and 1,1-difluoro-2,4-diaminobutane (DFDB) gave the results set forth in Table I below: […]

[1] = Toxicity (weight loss and deaths) in mice after daily i.p. injection for four consecutive days, observed up to 12 days (Example 10); format: in vivo, mice (male albino CDI)
Method: as §1, §2

[2] = 5 mg/kg daily i.p. for 4 days, observed up to 12 days

Row | Structure (SMILES) | GABA-T Inhibition (GABA-T; 2 mg/kg daily i.p. for 4 days) [%] | GABA-T Inhibition (GABA-T; 5 mg/kg daily i.p. for 4 days) [%] | GABA-T Inhibition (GABA-T; 10 mg/kg daily i.p. for 4 days) [%] | GABA-T Inhibition (GABA-T; 20 mg/kg daily i.p. for 4 days) [%] | Weight Loss ([1]; 2 mg/kg daily i.p. for 4 days) [%] | Morality (After treatment) ([1]; 2 mg/kg daily i.p. for 4 days, observed up to 12 days) | Weight Loss ([1]; 5 mg/kg daily i.p. for 4 days) [%] | Morality (After treatment) [1, 2] | Weight Loss ([1]; 10 mg/kg daily i.p. for 4 days) [%] | Morality (After treatment) ([1]; 10 mg/kg daily i.p. for 4 days, by day 8) | Weight Loss ([1]; 20 mg/kg daily i.p. for 4 days) [%] | Morality (After treatment) ([1]; 20 mg/kg daily i.p. for 4 days, by day 6) | GABA-T Inhibition (GABA-T; 25 mg/kg daily i.p. for 4 days) [%] | GABA-T Inhibition (GABA-T; 50 mg/kg daily i.p. for 4 days) [%] | Morality (After treatment) ([1]; 10 mg/kg daily i.p. for 4 days, observed up to 12 days) | Weight Loss ([1]; 25 mg/kg daily i.p. for 4 days) [%] | Morality (After treatment) ([1]; 25 mg/kg daily i.p. for 4 days, on day 12) | Weight Loss ([1]; 50 mg/kg daily i.p. for 4 days) [%] | Morality (After treatment) ([1]; 50 mg/kg daily i.p. for 4 days, on day 8)
1 | NCCC(N)C(F)F (stereo not drawn) [DFDB, 1,1-Difluoro-2,4-diaminobutane] | 69.5 | 71.4 | 81 | 96.7 | 0 | 0/5 | 0 | 0/5 | -25 | 2/5 | -30 | 5/5 |  |  |  |  |  |  | 
2 | NCCC(N)CF (stereo not drawn) [MFDB, 1-Fluoro-2,4-diaminobutane] |  | 39.7 | 49.8 |  |  |  | 0 | 0/5 | 0 |  |  |  | 74 | 79 | 0/5 | -20 | 2/5 | -35 | 3/5
